Measured values taken from patent US20110152236A1 (SANOFI-AVENTIS, priority 2008, published 2011).
Like-named read-outs stand apart in the source and are kept apart here.

Assays:
human CB1 receptor = target: T1, human CB1 receptor (Homo sapiens, UniProt P21554); assay: intracellular cyclic AMP test in U373MG cells (HTRF cAMP Dynamic Kit); assay type: cell-based
T1 construct: U373MG cells naturally expressing the human CB1 receptor; endogenous in cells; host or cells: U373MG cells
Description: The compounds according to the invention were the subject of pharmacological tests for determining the activity with respect to human cannabinoid CB1-type receptors. The efficacy of the compounds of formula (I) was determined in a functional test which measures cannabinoid CB1 receptor activity (intracellular cyclic AMP test). The test for detecting intracellular cyclic AMP in U373MG cells naturally expressing the human CB1 receptor was carried out as described in the following reference: Bouaboula et al., 1995, J. Biol. Chem. 270:13973-13980. The HTRF cAMP Dynamic Kit from CisBio was used to quantify the intracellular cyclic AMP. In this test, the IC50 values are between 0.001 μM and 2 μM.

cannabinoid CB1 receptor = target: T2, cannabinoid CB1 receptor (Mus musculus, UniProt P47746); assay: model of inhibition of gastrointestinal transit induced by racemic CP55,940 in mice; assay type: in vivo; settings: 1 mg/kg per os; 3 hours after administration of the product; CP55,940 0.15 mg/kg ip; male CD1 mice
T2 construct: from tissue; host or cells: whole animal (mice; male CD1 mice in the gastrointestinal transit model)
T2 sequence (P47746 whole entry): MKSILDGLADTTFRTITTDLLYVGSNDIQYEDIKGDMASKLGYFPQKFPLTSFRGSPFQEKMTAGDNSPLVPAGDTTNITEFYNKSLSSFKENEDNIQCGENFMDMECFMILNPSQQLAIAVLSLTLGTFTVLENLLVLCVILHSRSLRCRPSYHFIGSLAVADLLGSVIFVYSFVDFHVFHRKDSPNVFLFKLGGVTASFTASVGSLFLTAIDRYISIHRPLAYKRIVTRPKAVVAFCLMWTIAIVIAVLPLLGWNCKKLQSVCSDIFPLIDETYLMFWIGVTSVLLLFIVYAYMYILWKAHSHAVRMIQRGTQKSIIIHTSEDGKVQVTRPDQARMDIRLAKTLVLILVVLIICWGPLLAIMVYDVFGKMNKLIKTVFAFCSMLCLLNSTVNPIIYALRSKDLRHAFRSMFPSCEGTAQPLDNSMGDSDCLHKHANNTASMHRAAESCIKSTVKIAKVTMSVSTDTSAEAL
Description: The antagonistic activity of the compounds was also shown by means of the model of inhibition of gastrointestinal transit induced by racemic CP55,940 (1RS,3RS,4RS-3-[hydroxy-2-(1,1-dimethylheptyl)phenyl]-4-(3-hydroxypropyl)cyclohexan-1-ol) in mice, according to the method described by Rinaldi-Carmona et al., J. Pharmacol, Exp. Ther. 2004, 310, 905-914. Briefly, male CD1 mice receive the test product per os 30 minutes or 2 hours before administration of the racemic CP55,940 agonist (1RS,3RS,4RS-3-[hydroxy-2-(1,1-dimethylheptyl)phenyl]-4-(3-hydroxypropyl)cyclohexan-1-ol) (0.15 mg/kg ip in 10% Cremophor). After a further 30 minutes, the animals receive a charcoal bolus po. Thirty minutes later, the animals are euthanized (CO2/O2) and the intestine is dissected. The progression of the charcoal bolus in the intestine is expressed as percentage of the total length of the intestine.

[1] = U373MG cells naturally expressing the human CB1 receptor, intracellular cyclic AMP, read-out: IC50

T1 sequence (P21554 whole entry): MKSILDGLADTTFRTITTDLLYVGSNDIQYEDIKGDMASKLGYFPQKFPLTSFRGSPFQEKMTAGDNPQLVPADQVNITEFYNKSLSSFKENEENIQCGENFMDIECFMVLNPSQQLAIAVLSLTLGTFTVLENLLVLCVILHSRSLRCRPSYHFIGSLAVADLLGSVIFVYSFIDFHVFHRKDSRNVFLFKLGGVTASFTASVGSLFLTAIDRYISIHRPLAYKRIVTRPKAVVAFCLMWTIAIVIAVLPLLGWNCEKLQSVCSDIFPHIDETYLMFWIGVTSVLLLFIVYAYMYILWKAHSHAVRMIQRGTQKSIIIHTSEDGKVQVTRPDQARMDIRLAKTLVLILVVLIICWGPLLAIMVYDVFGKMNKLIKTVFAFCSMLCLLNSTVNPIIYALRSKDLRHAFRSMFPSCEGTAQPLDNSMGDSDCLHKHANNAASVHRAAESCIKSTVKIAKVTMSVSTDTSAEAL

Compound	melting point	other results
CS(=O)(=O)N(c1cccc(C(=O)NCc2cc(O)no2)c1)C1CN(C(c2ccc(Cl)cc2)c2ccc(Cl)cc2)C1	209 °C	
CS(=O)(=O)N(c1cccc(C(=O)Nc2nccs2)c1)C1CN(C(c2ccc(Cl)cc2)c2ccc(Cl)cc2)C1 [Compound 1, 3-[{1-[Bis(4-chlorophenyl)methyl]azetidin-3-yl}(methylsulphonyl)amino]-N-(1,3-thiazol-2-yl)benzamide]	244 °C	
Cn1cc(O)nc1NC(=O)c1cccc(N(C2CN(C(c3ccc(Cl)cc3)c3ccc(Cl)cc3)C2)S(C)(=O)=O)c1 [Compound 4, 3-[{1-[bis(4-chlorophenyl)methyl]azetidin-3-yl}(methylsulphonyl)amino]-N-(4-hydroxy-1-methyl-1H-imidazol-2-yl)benzamide]	134 °C	
CS(=O)(=O)N(c1cccc(C(=O)Nc2nnc(C3CC3)s2)c1)C1CN(C(c2ccc(Cl)cc2)c2ccc(Cl)cc2)C1 [Compound 6, 3-[{1-[bis(4-chlorophenyl)methyl]azetidin-3-yl}(methylsulphonyl)amino]-N-(5-cyclopropyl-1,3,4-thiadiazol-2-yl)benzamide]	226 °C	
CS(=O)(=O)N(c1cccc(C(=O)Nc2ncccn2)c1)C1CN(C(c2ccc(Cl)cc2)c2ccc(Cl)cc2)C1 [Compound 8, 3-[{1-[bis(4-chlorophenyl)methyl]azetidin-3-yl}(methylsulphonyl)amino]-N-(pyrimidin-2-yl)-benzamide]	137 °C	
CS(=O)(=O)N(c1cccc(C(=O)Nc2cc[nH]n2)c1)C1CN(C(c2ccc(Cl)cc2)c2ccc(Cl)cc2)C1 [Compound 9, 3-[{1-[bis(4-chlorophenyl)methyl]azetidin-3-yl}(methylsulphonyl)amino]-N-(1H-pyrazol-3-yl)-benzamide]	150 °C	
CS(=O)(=O)N(c1cccc(C(=O)Nc2nonc2N)c1)C1CN(C(c2ccc(Cl)cc2)c2ccc(Cl)cc2)C1 [Compound 10, N-(4-amino-1,2,5-oxadiazol-3-yl)-3-[{1-[bis(4-chlorophenyl)methyl]azetidin-3-yl}(methylsulphonyl)amino]benzamide]	255 °C	IC50 (human CB1 receptor; [1]): 40 nM
CS(=O)(=O)N(c1cccc(C(=O)Nc2cc(O)ccn2)c1)C1CN(C(c2ccc(Cl)cc2)c2ccc(Cl)cc2)C1 [Compound 11, 3-[{1-[bis(4-chlorophenyl)methyl]azetidin-3-yl}(methylsulphonyl)amino]-N-(4-hydroxypyridin-2-yl)benzamide]	208 °C	IC50 (human CB1 receptor; [1]): 170 nM
CS(=O)(=O)N(c1cccc(C(=O)Nc2n[nH]cc2C(N)=O)c1)C1CN(C(c2ccc(Cl)cc2)c2ccc(Cl)cc2)C1 [Compound 12, 3-[({3-[{1-[bis(4-chlorophenyl)methyl]azetidin-3-yl}(methylsulphonyl)amino]phenyl}carbonyl)-amino]-1H-pyrazole-4-carboxamide]	174 °C	
CS(=O)(=O)N(c1cccc(C(=O)NCc2nc[nH]n2)c1)C1CN(C(c2ccc(Cl)cc2)c2ccc(Cl)cc2)C1 [Compound 13, 3-[{1-[Bis(4-chlorophenyl)methyl]azetidin-3-yl}(methylsulphonyl)amino]-N-(1H-1,2,4-triazol-3-ylmethyl)benzamide]	210 °C	
CS(=O)(=O)N(c1cccc(C(=O)NCc2cc[nH]n2)c1)C1CN(C(c2ccc(Cl)cc2)c2ccc(Cl)cc2)C1 [Compound 14, 3-[{1-[Bis(4-chlorophenyl)methyl]azetidin-3-yl}(methylsulphonyl)amino]-N-(1H-pyrazol-3-ylmethyl)benzamide]	224 °C	
CS(=O)(=O)N(c1cccc(C(=O)NCCn2cccn2)c1)C1CN(C(c2ccc(Cl)cc2)c2ccc(Cl)cc2)C1 [Compound 15, 3-[{1-[bis(4-chlorophenyl)methyl]azetidin-3-yl}(methylsulphonyl)amino]-N[2-(1H-pyrazol-1-yl)ethyl]benzamide]	264 °C	IC50 (human CB1 receptor; [1]): 134 nM
CS(=O)(=O)N(c1cccc(C(=O)NCCc2ncccn2)c1)C1CN(C(c2ccc(Cl)cc2)c2ccc(Cl)cc2)C1 [Compound 16, 3-[{1-[bis(4-chlorophenyl)methyl]azetidin-3-yl}(methylsulphonyl)amino]-N-[2-(pyrimidin-2-yl)-ethyl]benzamide]	120 °C	
CS(=O)(=O)N(c1cc(F)cc(C(=O)Nc2ccccn2)c1)C1CN(C(c2ccc(Cl)cc2)c2ccc(Cl)cc2)C1 [Compound 18, 3-[{1-[bis(4-chlorophenyl)methyl]azetidin-3-yl}(methylsulphonyl)amino]-5-fluoro-N-(pyridin-2-yl)benzamide]		IC50 (human CB1 receptor; [1]): 6 nM
CS(=O)(=O)N(c1cc(F)cc(C(=O)Nc2cc(C#N)ccn2)c1)C1CN(C(c2ccc(Cl)cc2)c2ccc(Cl)cc2)C1 [Compound 34]		IC50 (human CB1 receptor): 20 nM; percentages of inhibition (cannabinoid CB1 receptor): 46%
CC(NC(=O)c1cc(F)cc(N(C2CN(C(c3ccc(Cl)cc3)c3ccc(Cl)cc3)C2)S(C)(=O)=O)c1)c1ccccn1 (stereo not drawn) [Compound 39]		IC50 (human CB1 receptor): 33 nM; percentages of inhibition (cannabinoid CB1 receptor): 66%
CS(=O)(=O)N(c1cc(F)cc(C(=O)NCc2ccc(=O)[nH]c2)c1)C1CN(C(c2ccc(Cl)cc2)c2ccc(Cl)cc2)C1 [Compound 47]		IC50 (human CB1 receptor): 9 nM; percentages of inhibition (cannabinoid CB1 receptor): 68%

Further lines, with some results ahead:

melting point	Compound	other results
219 to 221 °C	CS(=O)(=O)N(c1cc(F)cc(C(=O)Nc2ccon2)c1)C1CN(C(c2ccc(Cl)cc2)c2ccc(Cl)cc2)C1 [Compound 17, 3-[{1-[bis(4-chlorophenyl)methyl]azetidin-3-yl}(methylsulphonyl)amino]-5-fluoro-N-(isoxazol-3-yl)benzamide]	
222 to 224 °C	Cc1cc(NC(=O)c2cc(F)cc(N(C3CN(C(c4ccc(Cl)cc4)c4ccc(Cl)cc4)C3)S(C)(=O)=O)c2)no1 [Compound 21, 3-[{1-[Bis(4-chlorophenyl)methyl]azetidin-3-yl)(methylsulphonyl)amino]-5-fluoro-N-(5-methylisoxazol-3-yl)benzamide]	
234 to 236 °C	CS(=O)(=O)N(c1cc(F)cc(C(=O)Nc2cnoc2)c1)C1CN(C(c2ccc(Cl)cc2)c2ccc(Cl)cc2)C1 [Compound 24, 3-[{1-[bis(4-chlorophenyl)methyl]azetidin-3-yl}(methylsulphonyl)amino]-5-fluoro-N-(isoxazol-4-yl)benzamide]	
224 to 226 °C	Cc1cc(NC(=O)c2cc(F)cc(N(C3CN(C(c4ccc(Cl)cc4)c4ccc(Cl)cc4)C3)S(C)(=O)=O)c2)on1 [Compound 26, 3-[{1-[bis(4-chlorophenyl)methyl]azetidin-3-yl}(methylsulphonyl)amino]-5-fluoro-N-(3-methylisoxazol-5-yl)benzamide]	
184 to 186 °C	Cc1ccnc(NC(=O)c2cc(F)cc(N(C3CN(C(c4ccc(Cl)cc4)c4ccc(Cl)cc4)C3)S(C)(=O)=O)c2)c1 [Compound 27, 3-[{1-[bis(4-chlorophenyl)methyl]azetidin-3-yl}(methylsulphonyl)amino]-5-fluoro-N-(4-methylpyridin-2-yl)benzamide]	
176 to 178 °C	Cc1cccc(NC(=O)c2cc(F)cc(N(C3CN(C(c4ccc(Cl)cc4)c4ccc(Cl)cc4)C3)S(C)(=O)=O)c2)n1 [Compound 28, 3-[{1-[bis(4-chlorophenyl)methyl]azetidin-3-yl}(methylsulphonyl)amino]-5-fluoro-N-(6-methylpyridin-2-yl)benzamide]	
210 °C	CS(=O)(=O)N(c1cccc(C(=O)Nc2ccc(N)nc2)c1)C1CN(C(c2ccc(Cl)cc2)c2ccc(Cl)cc2)C1 [Compound 30, N-(6-aminopyridin-3-yl)-3-[{1-[bis(4-chlorophenyl)methyl]azetidin-3-yl}(methylsulphonyl)amino]benzamide]	
222 °C	CS(=O)(=O)N(c1cccc(C(=O)Nc2nc(N)n[nH]2)c1)C1CN(C(c2ccc(Cl)cc2)c2ccc(Cl)cc2)C1 [Compound 31, N-(3-amino-1H-1,2,4-triazol-5-yl)-3-[{1-[bis(4-chlorophenyl)methyl]azetidin-3-yl}(methylsulphonyl)amino]benzamide]	
124 °C	CS(=O)(=O)N(c1cccc(C(=O)NCc2nn[nH]n2)c1)C1CN(C(c2ccc(Cl)cc2)c2ccc(Cl)cc2)C1 [Compound 33, 3-[{1-[bis(4-chlorophenyl)methyl]azetidin-3-yl}(methylsulphonyl)amino]-N-(2H-tetrazol-5-ylmethyl)benzamide]	
165 °C	N#Cc1ccnc(NC(=O)c2cc(F)cc(NS(=O)(=O)CC3CN(C(c4ccc(Cl)cc4)c4ccc(Cl)cc4)C3)c2)c1 [Compound 34, 3-({1-[bis(4-chlorophenyl)methyl]azetidin-3-yl}methylsulphonylamino)-N-(4-cyanopyridin-2-yl)-5-fluorobenzamide]	
